Results on 3 compounds are retold here after US20110207944A1, “VITAMIN D3 LACTAM DERIVATIVE” (TEIJIN PHARMA LIMITED, priority 2008, published 2011).

One experiment deals with T1, human VDR (Homo sapiens, UniProt P11473).
T1 construct: expressed in transfected cells; host or cells: HOS cells (human osteosarcoma, ATCC), pcDNA3 expression vector, Lipofectamine 2000
T1 sequence (P11473 1-427): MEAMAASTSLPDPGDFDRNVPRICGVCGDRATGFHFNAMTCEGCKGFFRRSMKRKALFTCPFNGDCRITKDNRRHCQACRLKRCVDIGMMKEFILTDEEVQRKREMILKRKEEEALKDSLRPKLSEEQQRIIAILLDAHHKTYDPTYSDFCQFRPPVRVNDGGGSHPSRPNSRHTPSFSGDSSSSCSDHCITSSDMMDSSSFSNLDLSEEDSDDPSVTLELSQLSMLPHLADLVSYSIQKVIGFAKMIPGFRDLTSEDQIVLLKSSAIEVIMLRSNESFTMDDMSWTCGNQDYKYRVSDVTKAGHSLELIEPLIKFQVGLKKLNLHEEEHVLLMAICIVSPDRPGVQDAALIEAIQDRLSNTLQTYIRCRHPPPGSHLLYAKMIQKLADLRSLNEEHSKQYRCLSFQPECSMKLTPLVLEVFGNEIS
Briefly: Vitamin D3 receptor-antagonist activity: human osteocalcin promoter luciferase reporter in HOS cells transfected with human VDR and human RXR. The class given is cell-based. The conditions noted are these: for Antagonist specific activity against TEI-9647 (%): IC50 of test compound with respect to IC50 of TEI-9647 in each experiment; for pIC50: luciferase activity in HOS cells, with 1α,25-dihydroxyvitamin D3 1×10^−8 M, 24 hours. The text has this: Vitamin D3 Receptor-Antagonist Activity in Terms of the Transcription Activity in Human Osteocalcin by 1α,25-dihydroxyvitamin D3 as a Marker
(1) A pGL3 vector (Promega Corp.) was used as a reporter vector. The promoter sequence of the human osteocalcin gene, which was obtained by a known method (Ozono et al., J. Biol. Chem., 265:21881-21888, 1990), was cloned from cDNA acquired from HOS cells (obtained from ATCC) and inserted into the upstream of the luciferase gene on the reporter vector. An expression vector was constructed by inserting a DNA sequence encoding human VDR and human RXR into a pcDNA3 vector (Invitrogen Corp). The HOS cells were incubated in a DMEM medium supplemented with 10% FBS at 37° C. in the presence of 5% CO2, and subcultivated every 2 or 3 days.
(2) Cells being subcultivated were collected by centrifugation and re-suspended in a serum and phenol red-free DMEM medium at 4×10^5 cells/mL. The re-suspension of cells was plated in a 96 well plate at 0.1 mL/well. In this system, various vectors described in (1) were added at 0.05 mL/well with Lipofectamin 2000 (Invitrogen Corp.). After the incubation for 3 hours at 37° C., 1α,25-dihydroxyvitamin D3 and the compounds of the present invention in various concentrations or TEI-9647 (note) as a control (the final concentration: 1×10^−8 M for 1α,25-dihydroxyvitamin D3, and 1×10^−6M and 1×10^−12M for the compounds of the present invention and TEI-9647) were added to each well. After incubation at 37° C. for 24 hours, the medium was removed, the cells were washed with PBS(−) once, and measured for the luciferase activity using a Dual Glo-Luciferase Assay kit (Promega Corp.) by luminometer (Berthold Corp.). The resulting luciferase values were plotted against the concentration of the test compounds and IC50 was determined as the concentration of the test compound at which the luciferase value was inhibited by 50%. Furthermore, to compare the intensities of activity among experiments, the IC50 value of the test compounds with respect to the IC50 value of […] in each experiment was calculated as the antagonist specific activity (%) against TEI-9647.

Experiment [1] concerns the target T2, intracellular 1α,25-dihydroxyvitamin D3 receptor protein in chick intestinal mucous membrane (Gallus gallus, UniProt O42392).
T2 construct: The intracellular 1α,25-dihydroxyvitamin D3 receptor protein in chick intestinal mucous membrane (0.2 mg); from tissue; host or cells: chick intestinal mucous membrane
T2 sequence (O42392 1-451): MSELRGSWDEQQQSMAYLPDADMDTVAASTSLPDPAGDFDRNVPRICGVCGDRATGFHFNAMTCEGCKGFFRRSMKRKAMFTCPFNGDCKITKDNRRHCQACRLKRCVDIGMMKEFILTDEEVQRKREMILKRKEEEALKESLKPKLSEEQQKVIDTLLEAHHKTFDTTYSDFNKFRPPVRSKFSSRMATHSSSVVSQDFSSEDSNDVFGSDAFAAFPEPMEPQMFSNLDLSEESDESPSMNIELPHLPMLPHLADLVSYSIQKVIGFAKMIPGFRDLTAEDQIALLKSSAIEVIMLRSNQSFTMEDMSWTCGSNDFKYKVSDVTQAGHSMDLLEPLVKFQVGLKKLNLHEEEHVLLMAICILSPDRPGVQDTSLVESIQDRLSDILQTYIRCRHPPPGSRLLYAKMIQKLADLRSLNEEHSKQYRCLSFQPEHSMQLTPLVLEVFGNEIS
Briefly: Binding affinity to intracellular vitamin D3 receptor (VDR) in chick intestinal mucous membrane, [3H]1α,25-dihydroxyvitamin D3 competition. The conditions noted are these: ratio of IC50 relative to IC50 of 1α,25-dihydroxyvitamin D3, 25° C., 1 hour. On the procedure: Binding Affinity to Intracellular Vitamin D3 Receptor (VDR) in Chick Intestinal Mucous Membrane
This binding affinity was assayed according to the method described by Ishizuka, et al. (Steroids, 37:33-43, 1982). Specifically, a solution of [26, 27-methyl-^3H]1α,25-dihydroxyvitamin D3 (15,000 dpm, 180 Ci/mmol) in ethanol (10 μL) and a solution of various concentrations of the compounds of the present invention in ethanol (40 μL) were added into a polypropylene tube (12×75 mm). The intracellular 1α,25-dihydroxyvitamin D3 receptor protein in chick intestinal mucous membrane (0.2 mg) and gelatin (1 mg) were dissolved in 1 mL of phosphate buffer (pH 7.4), the solution was added into the tube, and the mixture was allowed to react at 25° C. for 1 hour. To the tube, a 40% polyethylene glycol 6000 solution (1 mL) was added and the mixture was vigorously stirred. Then the tube was centrifuged at 2260×g at 4° C. for 60 minutes. The bottom of the tube containing precipitate was cut off by a cutter knife and was placed in a liquid scintillation vial, dioxane scintillator (10 mL) was added thereto and the radioactivity of the precipitate was measured by a liquid scintillation counter. The measured values were plotted against the concentration of the test compounds, and IC50 (the concentration of the test compounds at which binding to the receptor was inhibited by 50%) was determined. The ratios of the IC50 of the compounds of the present invention over the IC50 of 1α,25-dihydroxyvitamin D3 were calculated as the VDR affinity of the compounds of the present invention (%).

SMILES strings stand for the structures. pIC50: −log10 of the molar value.

The term pIC50 denotes the IC50 on a negative log10 scale, so that one unit is a factor of ten.

`C=C1/C(=C\C=C2/CCC[C@]3(C)[C@@H]([C@H](C)CC4CC(C)(O)C(=O)N4CCc4ccccc4)CC[C@@H]23)C[C@@H](O)[C@H](C)[C@@H]1O` (stereo partly drawn) [Compound No. 11a, 2α-methyl-1α,25-dihydroxyvitamin D3-26,23-lactam-N-(2-phenethyl)]: at human VDR, the “Antagonist specific activity against TEI-9647 (%)” value (“Antagonist specific activity … (%)” below) turned out to be 90.5% and the pIC50 was 7.56. Moreover, the “VDR affinity (%)” value in experiment [1] turned out to be 50%.
Take `C=C1/C(=C\C=C2/CCC[C@]3(C)[C@@H]([C@H](C)C[C@H]4C[C@](C)(O)C(=O)N4CCc4ccccc4)CC[C@@H]23)C[C@@H](O)[C@H](CCCO)[C@@H]1O` [Compound No. 12a, 2α-(3-hydroxypropyl)-1α,25-dihydroxyvitamin D3-26,23-lactam-N-(2-phenethyl)]: on human VDR, the “Antagonist specific activity … (%)” value is 143.1% and the pIC50 is 7.76. Further, the “VDR affinity (%)” value in experiment [1] was determined as 222%.
For the compound `C=C1/C(=C\C=C2/CCC[C@]3(C)[C@@H]([C@H](C)C[C@H]4C[C@](C)(O)C(=O)N4CCc4ccccc4)CC[C@@H]23)C[C@@H](O)[C@H](OCCCO)[C@@H]1O` [Compound No. 13a, 2α-(3-hydroxypropoxy)-1α,25-dihydroxyvitamin D3-26,23-lactam-N-(2-phenethyl)], at human VDR, the “Antagonist specific activity … (%)” value is listed as 29.9% and the pIC50 is 7.08. The “VDR affinity (%)” value in experiment [1] was 20%.
